{"source": "patent US9649373B2", "about": "“Neoseptins: small molecule adjuvants” (THE SCRIPPS RESEARCH INSTITUTE, priority 2013, dated 2017)", "key": {"[1]": {"molecular_target": "T1, TLR4 (Mus musculus, UniProt Q9JHF9+Q9QUK6)", "T1 sequence (Q9QUK6 26-835)": "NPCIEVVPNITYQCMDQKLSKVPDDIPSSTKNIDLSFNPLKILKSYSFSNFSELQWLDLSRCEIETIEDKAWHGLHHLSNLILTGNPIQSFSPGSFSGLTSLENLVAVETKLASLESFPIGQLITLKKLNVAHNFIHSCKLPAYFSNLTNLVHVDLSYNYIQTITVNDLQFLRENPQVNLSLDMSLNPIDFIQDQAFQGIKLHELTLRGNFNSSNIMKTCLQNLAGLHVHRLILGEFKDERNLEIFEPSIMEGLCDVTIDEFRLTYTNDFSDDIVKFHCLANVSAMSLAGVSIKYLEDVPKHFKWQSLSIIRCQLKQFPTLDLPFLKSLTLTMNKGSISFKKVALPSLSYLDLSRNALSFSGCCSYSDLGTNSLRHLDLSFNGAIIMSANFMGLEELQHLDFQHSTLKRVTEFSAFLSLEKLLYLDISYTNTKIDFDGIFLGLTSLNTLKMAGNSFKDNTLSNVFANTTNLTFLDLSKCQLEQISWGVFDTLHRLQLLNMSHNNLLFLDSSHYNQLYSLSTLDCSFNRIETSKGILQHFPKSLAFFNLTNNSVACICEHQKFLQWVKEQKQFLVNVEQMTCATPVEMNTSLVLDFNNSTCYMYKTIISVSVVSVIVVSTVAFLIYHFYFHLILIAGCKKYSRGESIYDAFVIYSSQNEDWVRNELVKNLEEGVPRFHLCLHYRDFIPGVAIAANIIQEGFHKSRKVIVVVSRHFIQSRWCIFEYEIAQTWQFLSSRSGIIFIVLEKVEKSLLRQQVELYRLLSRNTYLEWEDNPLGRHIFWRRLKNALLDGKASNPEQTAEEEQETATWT", "T1 sequence (Q9JHF9 19-160)": "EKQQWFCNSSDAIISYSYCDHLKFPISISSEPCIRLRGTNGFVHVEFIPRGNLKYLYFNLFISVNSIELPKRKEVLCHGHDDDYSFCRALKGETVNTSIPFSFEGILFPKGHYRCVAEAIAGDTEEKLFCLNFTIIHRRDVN", "experiment": "Mouse peritoneal macrophage agonist assay (TNF-α ELISA)", "format": "cell-based", "design": "used to inject mice intraperitoneally; endogenous in cells; host or cells: mouse peritoneal exudate cells (thioglycolate-elicited peritoneal macrophages)", "conditions": "for TLR4 agonist efficacy: relative to neoseptin-1 or LPS; for EC50: read-out: EC50 of dose-response curves, TLR4 agonist activity", "description": "Mouse Peritoneal Macrophage Agonist Assay\nThree to four days prior to PEC isolation, 3 mL syringes filled with Brewer's thioglycolate medium are used to inject mice intraperitoneally with 1.5-2 mL through a 25-gauge needle.\nImmediately prior to isolation, mice are anaesthetized under isofluorane vapour (2-5% v/v, 2% O2).\n5 mL syringes filled with sterile PBS are used to recover PECs by lavage through an 18-gauge needle. Once obtained, exudate is added to 5 mL of PEC recovery solution in a 15 mL conical tube, and stored on ice.\nTubes containing exudate are centrifuged for 3 minutes at 1200 rpm in a tabletop centrifuge, and supernatant is replaced with 1-4 mL of PEC medium. Pelleted cells are resuspended by pipeting, and a 10 μL aliquot is taken for cell enumeration.\nThe concentration of each cell sample is adjusted to 1×10^6 cells/mL using PEC medium, and 100 μL of each sample (1×10^5 cells) is added to a tissue culture-treated 96 well flat-bottomed plate, leaving two columns (11 & 12) unoccupied per plate. Plates are incubated at 37° C./5% CO2 in a humidified incubator for at least 1 hour to permit cells to adhere to the plate, during which time 125-03 solutions are prepared.\nFollowing preincubation of PECs in the 96-well plate, non-adherent PECs are discarded along with residual medium, and 50 μM of compounds to be assayed are added to the cells. Plates are incubated for a further 4 hours.\nConditioned supernatant is collected into another 96 well plate and retained for TNF ELISA Assay. The cells are replaced with 100 μL/well of a 1:4 MTT solution:PEC medium solution (MTT 1 mg/mL final concentration). PEC plates are incubated at 37° C./5% CO2 overnight (about 18 hours). Supernatants are removed and 100 μL DMSO is added to each well. The plate is shaken for 10 minutes and read at 570 nm. This value is used to measure the cytotoxicity of the compounds.\nCoat ELISA plate with 100 μL/well of capture antibody in Coating Buffer. Seal the plate and incubate overnight (about 18 hours) at 4° C.\nAspirate wells and wash 4× with 300 μL/well Wash Buffer. Blot plate on absorbent paper to remove residual buffer.\nDilute 1 part 5× concentrated Assay Diluent with 4 parts DI water. Block wells with 200 μL/well of 1× Assay Diluent. Incubate at room temperature for 1 hour or 4° C. overnight (about 18 hours).\nAspirate and wash at twice with Wash Buffer.\nUsing 1× Assay Diluent to perform 2-fold serial dilutions of the top standards to make the standard curve for a total of 8 points: 1000, 500, 250, 125, 62.5, 31.25, 15.625, 0 pg/ml. Add 100 μL/well of top standard concentration to the appropriate wells. Add 65 μL/well assay diluent plus 35 μL samples to the wells. Seal the plate and incubate at room temperature for 2 hours [or overnight (about 18 hours) at 4° C.]\nAspirate/wash 4 times with wash buffer.\nAdd 100 μL/well of detection antibody diluted in 1× Assay diluent. Seal the plate and incubate at room temperature for 1 hour.\nAspirate/wash. Repeat for a total of 4 washes.\nAdd 100 μL/well of Avidin-HRP diluted in 1× Assay diluent. Seal the plate and incubate at room temperature for 30 minutes.\nAspirate and wash. Repeat for a total of 5 washes.\nAdd 100 μL/well of Substrate Solution to each well. Incubate plate at room temperature for 2-3 minutes.\nAdd 50 μL/well of Stop Solution, and read plate at 450 nm."}, "[2]": {"molecular_target": "T1, TLR4", "experiment": "TNF-α production in macrophages from mice with disabling germline mutations or knockouts of TLRs and downstream signaling proteins", "format": "cell-based", "design": "normalized TNF-α production in macrophages from mice; endogenous in cells; host or cells: macrophages from wild-type and mutant/knockout mice", "conditions": "for Genes on which induced TNF-α production depends / mechanism of signaling: mutant or knockout mouse macrophages, 5 ng/ml LPS or 50 mM neoseptin-3 (FIG. 1)", "description": "FIG. 1 in two parts as FIG. 1A and FIG. 1B are bar graphs that illustrate an assay of normalized TNF-α production in macrophages from mice containing disabling germline mutations or knockouts of genes encoding TLRs and downstream signaling proteins using 5 ng/ml of LPS or […] neoseptin-3.\n(§1) See, (a) mutagenetix.utsouthwestern.edu.; (b) Arnold et al., (2012) ENU-induced phenovariance in mice: Inferences from 587 mutations. BMC Res. Notes. 5, 577-0500-5-577."}, "[3]": {"experiment": "Overt toxicity on in vivo administration as adjuvant", "conditions": "at the maximum doses capable of administration", "from_the_text": "Thus, a contemplated Compound of Formula I acts as an agonist at the TLR4 receptor in that it binds to the TLR4 receptor of a cell and triggers a response by that cell, thereby mimicking the action of LPS, without the toxic result from using LPS as an adjuvant.\n(§2) It is remarkable that such a small molecule can display such exquisite structural selectivity for activating the immune response and to do so in a way that is so mechanistically specific and well-defined. {See, (a) Vogel Clin. Infect. Dis. 30 (Suppl 3):S266-S270 (2000); (b) Guy, Nat. Rev. Microbiol. 5:505-517 (2007); (c) Johnson, Curr. Top. Med. Chem. 8:64-79 (2008); and (d) Persing et al., Trends Microbiol. 10:S32-S37 (2002) and the citations therein for the procedures utilized.]"}, "[4]": {"system": "C57BL/6J mice", "experiment": "In vivo adjuvant effect, intramuscular co-injection with ovalbumin, serum OVA-specific IgG ELISA", "design": "species or system mouse", "description": "FIG. 3, in two panels as FIG. 3A and FIG. 3B, are graphs that illustrate ELIZA results for the adjuvant effect of neoseptin-3. In FIG. 3A, adjuvants were mixed with ovalbumin (OVA, 100 μg) and injected intramuscularly into C57BL/6J mice at the indicated doses. Two immunizations were administered with a booster given at 7 days. In FIG. 3B, LPS (0.2 mg/kg), neoseptin-3 (250 mg/kg) or monophosphoryl lipid A from Salmonella minnesota R595 (MPLA) (0.2 mg/kg) were mixed with ovalbumin (OVA, 0, 1, 10, and 100 μg) Serum levels of OVA-specific IgG were measured (ELISA) on indicated days post-immunization.\nFIG. 9 is a graph similar to FIG. 3 showing anti-olvalbumin titers at 14 days post immunization using adjuvants with ovalbumin (OVA, 100 μg) and injected intramuscularly into C57BL/6J mice. The adjuvants used were neoseptin-3, LPS, MPLA, and alum in the amounts shown.\nas §2, with “utilized.] […]” for “utilized.]”"}, "[5]": {"molecular_target": "T2, MD-2 (UniProt Q9JHF9)", "T2 sequence (Q9JHF9 1-160)": "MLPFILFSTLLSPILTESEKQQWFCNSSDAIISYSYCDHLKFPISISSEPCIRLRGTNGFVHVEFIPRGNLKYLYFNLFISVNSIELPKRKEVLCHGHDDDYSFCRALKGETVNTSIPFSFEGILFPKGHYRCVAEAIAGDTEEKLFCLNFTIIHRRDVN", "experiment": "Isothermal titration calorimetry binding to MD-2"}, "[6]": {"system": "NF-κB, P38 MAPK, JNK, and Erk signaling pathways", "experiment": "Activation of signaling pathways", "format": "cell-based", "from_the_text": "as §1"}, "[7]": {"system": "type I interferon response", "experiment": "Type I interferon response, release of INF-β / INF-α (FIG. 2)", "format": "cell-based"}}}
{"smiles": "N[C@@H](Cc1ccccc1)C(=O)Nc1ccc(C(=O)N[C@@H](CCc2ccccc2)C(=O)O)cc1CCc1ccc(O)cc1", "note": "[MM-1-88]", "values": [{"measurement": "TLR4 agonist efficacy", "setting": "[1]", "value": "significant enhancement in TLR4 agonist efficacy"}]}
{"smiles": "N[C@@H](Cc1ccccc1)C(=O)Nc1ccc(C(=O)N[C@@H](CCc2ccccc2)C(=O)O)cc1OCCc1ccc(O)cc1", "note": "[neoseptin-1]", "values": [{"measurement": "Genes on which induced TNF-α production depends / mechanism of signaling", "setting": "[2]", "value": "established to be TLR4"}]}
{"smiles": "CC(C)(C)OC(=O)[C@H](CCc1ccccc1)NC(=O)c1ccc(N)c(CCc2ccc(O)cc2)c1", "note": "[neoseptin-3]", "values": [{"measurement": "Overt toxicity", "setting": "[3]", "value": "does not display the overt toxicity"}, {"measurement": "In vivo adjuvant immune response compared with LPS", "setting": "[4]; co-injected with ovalbumin, intramuscular (FIG. 3)", "value": "more sustained immune response of equal or greater efficacy than LPS"}, {"measurement": "In vivo adjuvant immune response compared with alum", "setting": "[4]; ovalbumin 100 μg i.m., 14 days post immunization (FIG. 9)", "value": "much more robust immune response in vivo than does alum"}, {"measurement": "Affinity for MD-2 relative to MPLA", "setting": "[5]; ITC direct binding", "value": "slightly better than that of MPLA itself"}, {"measurement": "Kd", "setting": "[5]; ITC, 20 μM neoseptin-3 with 350 μM MD-2", "value": 11.7, "unit": "µM"}, {"measurement": "Activation of signaling pathways", "setting": "[6]", "value": "activate the NF-κB, P38 MAPK, JNK, and Erk signaling pathways"}, {"measurement": "Release of INF-β (type I interferon response) compared with LPS", "setting": "[7]", "value": "much more effectively stimulates a type I interferon response resulting in the release of INF-β"}, {"measurement": "EC50", "setting": "[1]", "value": "15 to 25", "unit": "µM"}, {"measurement": "TLR4 agonist efficacy", "setting": "[1]", "value": "nearly matching the efficacy of LPS"}, {"measurement": "Effect of antagonist eritoran on TLR4 agonist activity", "setting": "[1]; with eritoran", "value": "blocked by the antagonist eritoran"}, {"measurement": "Genes on which induced TNF-α production depends / mechanism of signaling", "setting": "[2]", "value": "dependent on TLR4, MD-2, MyD88, Trif, TRAM, MAL, IRAK4, and IKBKG"}, {"measurement": "CD14 dependence of induced TNF-α production", "setting": "[2]; unlike LPS", "value": "independent of CD14"}]}
{"smiles": "CC(C)(C)OC(=O)[C@H](CCc1ccccc1)NC(=O)c1ccc(N)c(OCCc2ccc(O)cc2)c1", "note": "[neoseptin-4]", "values": [{"measurement": "EC50", "setting": "[1]", "value": "15 to 25", "unit": "µM"}, {"measurement": "TLR4 agonist efficacy", "setting": "[1]", "value": "nearly matching the efficacy of LPS"}]}
